Assay results from publication PMC6017655, “In Silico and in Vitro-Guided Identification of Inhibitors of Alkylquinolone-Dependent Quorum Sensing in Pseudomonas aeruginosa” (Molecules : A Journal of Synthetic Chemistry and Natural …, 2018).

Key:
Plasma stability, human = format: in vitro ADME; details: 37 °C; for half-life at 1 µM: human, plasma, up to 2 h, read-out: Plasma Stability Human t 1/2
Experimental: Dilutions of a 10 mM test compound DMSO stock solution were prepared so that the final DMSO concentration was 1% v/v and the final test compound concentration tested was 1 µM. Following the addition of the test compound to plasma, the samples were pre-incubated for 10 min prior to the start of the incubation by the addition of the test compound. The test compound was incubated (n = 2; 1 µM final concentration) at 37 °C with plasma for up to 2 h. Aliquots were sampled at several time points and mixed with acetonitrile (containing internal standard) to terminate the reaction and precipitate the proteins. All the samples were mixed, centrifuged and the supernatants analysed by UPLC-MSMS. Parent disappearance and half-life (t 1/2) values were determined from the slope of the parent depletion curve. Control compounds (imidapril, enalapril, tenofovir and/or propantheline), were respectively included.

PA14 biofilms = assay: Biofilm assay on glass coverslips, GFP-labelled PA14; format: cell-based, Pseudomonas aeruginosa
Experimental: (§1) One of the clinical challenges of P. aeruginosa infections is the difficulty associated with the effective treatment of biofilms due to their high resistance to antibiotics. […] The effect of Ia, with or without tobramycin, on PA14 and PAO1-L biofilms grown on glass coverslips, was determined. […] The experiment was performed using green fluorescent labelled (GFP)-labelled PAO1-L and PA14 strains, grown under four different conditions: (i) no treatment (control); (ii) compound Ia at 8 µM in PA14 and 34 µM in PAO1-L (concentrations equal to 3× IC50); (iii) tobramycin at 100 µg/mL; (iv) Ia and tobramycin, at the same concentrations as (ii) and (iii).
(§2) Biofilms were cultivated on borosilicate glass coverslips in petri dishes. P. aeruginosa strains, PAO1-L and PA14, were labelled by transformation with plasmid pMMG, which constitutively expresses GFP from the Ptac promoter. Labelled strains were grown at 37 °C, for 16 h, in 2 mL RPMI-1640 (Lonza, Slough, UK), supplemented with 20 mM D-glucose (Sigma–Aldrich, Dorset, UK) and 2 µM FeCl3 (Sigma–Aldrich, Dorset, UK). Cultures were diluted 1:100 in fresh medium and allowed to grow for a further 4 h, or until an OD600 of 0.5 was reached. The mid-logarithmic cultures were diluted to an OD600 of 0.01 in 25 mL RPMI, supplemented with glucose and FeCl3, and inoculated into petri dishes containing UV sterilised borosilicate glass coverslips (22 × 22 mm, thickness no1) (VWR, Lutterworth, UK). Bacterial cells were seeded at 37 °C under static conditions for 1.5 h, and compound Ia was added to the culture at a concentration of 34 µM for P. aeruginosa PAO1-L and 8 µM for PA14 before dishes were moved to a shaker at 60 rpm and 37 °C for 15 h to form mature biofilms. Tobramycin and propidium iodide were added to the 15 h-old cultures at concentrations of 100 µg/mL and 2 µM, respectively, followed by further incubation for 4 h. Coverslips were examined under a Laser Scanning Fluorescent Microscope (LSM2, Zeiss, Oberkochen, Germany). Biofilms were visualised using egfp mode at an excitation wavelength of 488nm. Imaging was carried out using Zen 2011 imaging software (Zeiss, Oberkochen, Germany). A total of 5 Z-stacked images were collected per coverslip. Sampling was conducted at random from the central portion of each coverslip. Biomass was calculated using Image J (NIH, Bethesda, MD, USA) and Comstat 2.1. Software package (www.comstat.dk, lyngby, Denmark).

PAO1-L biofilms = assay: Biofilm assay on glass coverslips, GFP-labelled PAO1-L; format: cell-based, Pseudomonas aeruginosa
Experimental: as §1, §2

[1] = Ia 8 µM, tobramycin 100 µg/mL for 4 h
[2] = Ia 34 µM, tobramycin 100 µg/mL for 4 h

Row | SMILES | half-life at 1 µM (Plasma stability, human) [h] | Sensitisation of biofilm to tobramycin / effect of combined treatment, PA14 (PA14 biofilms; Ia 8 µM plus tobramycin 100 µg/mL for 4 h) | Effect on biofilm biomass, PA14 (PA14 biofilms; [1]) | Effect on cell viability in biofilm (propidium iodide), PA14 (PA14 biofilms; [1]) | Sensitisation of biofilm to tobramycin / effect of combined treatment, PAO1-L (PAO1-L biofilms; Ia 34 µM plus tobramycin 100 µg/mL for 4 h) | Effect on biofilm biomass, PAO1-L (PAO1-L biofilms; [2]) | Effect on cell viability in biofilm (propidium iodide), PAO1-L (PAO1-L biofilms; [2]) | Plasma stability (in words), human plasma (Plasma stability, human; 1 µM)
1 | CC(=O)N1N=C(c2ccccc2)CC1c1cccc(Nc2ccnc3cc(Cl)ccc23)c1 (stereo not drawn) [IIa] | 1.23 |  |  |  |  |  |  | 
2 | O=CN1N=C(c2ccccc2)CC1c1cccc(Nc2ccnc3cc(Cl)ccc23)c1 (stereo not drawn) [Ia] | 2.2 | sensitized the biofilm to tobramycin | reducing biomass | little impact on cell viability | sensitized the biofilm to tobramycin | reducing biomass | little impact on cell viability | greatest plasma stability
